Patent US10045990B2, “ERBB4 inhibitors and methods of use thereof” (Arizona Board of Regents on behalf of Arizona State …, priority 2015, dated 2018)

Tested on: protein-tyrosine kinases from the human genome
Conditions: compared to the control slides (FIG. 9)
Experimental: NAPPA kinase microarrays we generated with virtually all protein-tyrosine kinases from the human genome. The coding sequence for each tyrosine kinase was clone into an expression plasmid and immobilized on the microarray surface, with one protein kinase per feature. After the microarray was expressed, any phosphorylation that occurred during the expression step was removed by a treatment with lambda phosphatase.
Unphosphorylated microarrays were then incubated with a kinase buffer (25 mM Tris-HCl (pH 7.5), 5 mM beta-glycerophosphate, 2 mM dithiothreitol (DTT), 0.1 mM Na3VO4, 10 mM MgCl2) supplemented with […] and/or kinase inhibitors (concentration ranging from 0-10 uM). The kinase autophosphorylation activity was measured through the levels of phosphorylation present in each feature and was detected by phospho-tyrosine antibody. […] Staurosporine is a pan kinase inhibitor used as a control.

## CN[C@@H]1C[C@H]2O[C@@](C)([C@@H]1OC)n1c3ccccc3c3c4c(c5c6ccccc6n2c5c31)C(=O)NC4 [Staurosporine]
  overall phosphorylation signal of the microarrays: drastically reduce
